What was measured:
[1] = molecular target: T1, N6-adenosine-methyltransferase catalytic subunit (Homo sapiens, UniProt Q86U44); test: Inhibition of METTL3 (unknown origin) using 3' biotinylated RNA (UCUGGACUAAA) and 3H-SAM as a substrate preincubated for 5 mins followed by substrate addition incubated for 30 mins by scintillation counting method
[2] = molecular target: T1, N6-adenosine-methyltransferase catalytic subunit; test: Inhibition of METTL3-mediated m6A methylation in human […] cells assessed as reduction in mRNA level measured after 24 hrs by LC-MS/MS analysis; format: cell-based, MOLM-13

T1 sequence (Q86U44 whole entry): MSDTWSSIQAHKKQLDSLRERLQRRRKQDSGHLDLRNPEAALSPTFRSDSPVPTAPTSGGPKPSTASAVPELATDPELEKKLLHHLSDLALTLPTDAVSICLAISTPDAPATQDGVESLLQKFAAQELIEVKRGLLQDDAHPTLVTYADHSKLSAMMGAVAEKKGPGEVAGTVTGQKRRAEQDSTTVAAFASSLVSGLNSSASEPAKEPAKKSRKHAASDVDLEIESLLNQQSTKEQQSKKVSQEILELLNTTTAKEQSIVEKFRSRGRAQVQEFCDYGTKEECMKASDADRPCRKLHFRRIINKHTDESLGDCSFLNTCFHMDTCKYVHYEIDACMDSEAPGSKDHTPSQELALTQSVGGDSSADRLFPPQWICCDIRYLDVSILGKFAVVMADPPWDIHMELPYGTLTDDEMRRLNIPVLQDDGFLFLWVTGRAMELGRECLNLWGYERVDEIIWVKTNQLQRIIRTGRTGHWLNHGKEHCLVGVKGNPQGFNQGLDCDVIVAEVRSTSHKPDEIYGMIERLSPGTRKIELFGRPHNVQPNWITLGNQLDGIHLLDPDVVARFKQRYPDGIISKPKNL

Compound	IC50 [1] [nM]	IC50 [2] [nM]
CCNc1ccc2ccc(OC[C@H]3O[C@@H](n4cc(C5CCCC5)c5c(N)ncnc54)[C@H](O)[C@@H]3O)cc2n1	< 10	< 1000
Nc1ncnc2c1c([C@@H]1CCCO1)cn2[C@@H]1O[C@H](COc2ccc3ccc(N4CCC4)nc3c2)[C@@H](O)[C@@H]1F	< 10	< 1000
CNc1ccc2ccc(OC[C@H]3O[C@@H](n4cc(-c5ccn(C)n5)c5c(N)ncnc54)[C@H](O)[C@@H]3O)cc2n1	< 10	< 1000
Cc1coc(-c2cn([C@@H]3O[C@H](COc4ccc5ccc(N6CCC6)nc5c4)[C@@H](O)[C@@H]3F)c3ncnc(N)c23)n1	< 10	< 1000
Nc1ncnc2c1c(-n1cccn1)cn2[C@@H]1O[C@H](COc2ccc3ccc(N4CCC4)nc3c2)[C@@H](O)[C@@H]1F	< 10	< 1000
CNc1ccc2ccc(OC[C@H]3O[C@@H](n4cc(-c5ccc(C)o5)c5c(N)ncnc54)[C@@H](F)[C@@H]3O)cc2n1	< 10	< 1000

Reference: ChEMBL document CHEMBL4825715, “Novel METTL3 Modulators for Treating Acute Myeloid Leukemia (AML)” (ACS Med Chem Lett, 2021)
